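1) Cells in 96-well plates. 2) Compound, 48 h, 5 concentrations. 3) Linear interpolation between surrounding doses. 4) Unreached endpoint = highest concentration. GI50 is the concentration that inhibits growth by half. TGI: total growth inhibition.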
Tests used:
Assay in all cases: NCI-60 cell line screen, 48 h
ACHN renal = system: ACHN renal
OVCAR-3 ovarian = system: OVCAR-3 ovarian
CAKI-1 renal = system: CAKI-1 renal
OVCAR-8 ovarian = system: OVCAR-8 ovarian
SW-620 colon = system: SW-620 colon
A498 renal = system: A498 renal
OVCAR-5 ovarian = system: OVCAR-5 ovarian
SK-MEL-5 melanoma = system: SK-MEL-5 melanoma
SNB-19 CNS = system: SNB-19 CNS
SR leukemia = system: SR leukemia
HS 578T breast = system: HS 578T breast

Row | SMILES | TGI (ACHN renal) | TGI (OVCAR-3 ovarian) | TGI (CAKI-1 renal) | TGI (OVCAR-8 ovarian) | TGI (SW-620 colon) | TGI (A498 renal) | TGI (OVCAR-5 ovarian) | TGI (SK-MEL-5 melanoma) | TGI (SNB-19 CNS) | TGI (SR leukemia) | TGI (HS 578T breast) | GI50 (SR leukemia)
1 | CCOC(=O)c1cc(I)c(-c2cc(C)no2)n1C | > 100 µM | > 100 µM | 54.7 µM | > 100 µM | > 100 µM | > 100 µM | > 100 µM | > 100 µM | > 100 µM |  |  | 
2 | CC1(C)C(=O)c2ccccc2OC1N1CCN(C2Oc3ccccc3C(=O)C2(C)C)CC1 (stereo unspecified) | > 100 µM | > 100 µM | > 100 µM |  | > 100 µM | > 100 µM | > 100 µM | > 100 µM | > 100 µM | > 100 µM | > 100 µM | 
3 | O=c1c2c3c(sc2nc2n1N=C(c1ccc(Cl)cc1)CS2)CCCC3 | > 100 µM | > 100 µM | > 100 µM | > 100 µM | > 100 µM | > 100 µM | > 100 µM | > 100 µM |  | > 100 µM | > 100 µM | 
4 | O=C1c2ccccc2C(=O)c2sc(Nc3ccccc3C(F)(F)F)nc21 | 33 µM | 27.5 µM | 21.1 µM |  | 24.4 µM | 28.9 µM | 44.6 µM | 22.7 µM | 55.2 µM | > 100 µM | 48.2 µM | 
5 | O=S(OC12CC3CC(CC(C3)C1)C2)c1cc(Cl)cc(Cl)c1OCc1ccccc1 (stereo unspecified) | > 100 µM | > 100 µM |  |  |  | > 100 µM | > 100 µM |  | > 100 µM | > 100 µM |  | 
6 | O=c1[nH]c(=O)n(C2CC(O)C(CO)O2)cc1NN=NCCCc1ccccc1 (stereo unspecified) | > 100 µM | > 100 µM | > 100 µM | > 100 µM |  | > 100 µM | > 100 µM | > 100 µM |  | > 100 µM | > 100 µM | 
7 | CC(=O)OCc1cncn1S(=O)(=O)c1ccc(C)cc1 | > 100 µM | > 100 µM | > 100 µM | > 100 µM | > 100 µM |  | > 100 µM | > 100 µM | > 100 µM | > 100 µM | > 100 µM | 
8 | O=[N+]([O-])c1ccc(N/N=C/CC(O)(C(F)(F)F)C(F)(F)F)c([N+](=O)[O-])c1 | > 10 µM | 8.46 µM | > 10 µM | > 10 µM | > 10 µM | > 10 µM |  | > 10 µM | > 10 µM | > 10 µM | 8.16 µM | 
9 | COC(=O)CCc1ccc2c(c1)C(=O)CC2 | > 100 µM | > 100 µM |  | > 100 µM | > 100 µM | > 100 µM | > 100 µM | > 100 µM | > 100 µM | > 100 µM | > 100 µM | 
10 | CC1=NN(C(=O)CC(=O)Nc2ccccc2Cl)C(=O)C1N=Nc1ccc(S(=O)(=O)c2ccc(N=NC3C(=O)N(C(=O)CC(=O)Nc4ccccc4Cl)N=C3C)cc2)cc1 (stereo unspecified) | > 100 µM | > 100 µM | > 100 µM | > 100 µM | > 100 µM |  | > 100 µM | > 100 µM | > 100 µM | > 100 µM | > 100 µM | 
11 | CCCC(O)c1cn(C(NC(=O)c2ccccc2)P(=O)(OCC)OCC)nn1 (stereo unspecified) | > 100 µM | > 100 µM | > 100 µM | > 100 µM | > 100 µM | > 100 µM |  | > 100 µM | > 100 µM | > 100 µM | > 100 µM | 
12 | CC1(C)C(CCO)CC1n1cc(I)c(=O)[nH]c1=O (stereo unspecified) | > 100 µM | > 100 µM | > 100 µM |  | > 100 µM | > 100 µM | > 100 µM | > 100 µM | > 100 µM |  | > 100 µM | 
13 | CCOC(=O)c1c(Br)c(-c2ccc(OC)cc2)c(Br)n1C | > 100 µM | 67.7 µM |  | > 100 µM | 38.2 µM | 49.6 µM | > 100 µM | 22.4 µM | 97.7 µM | 78.3 µM | 47.6 µM | 13.3 µM
14 | O=C1C=C2SC3C[C@@]24CC1[N+]1=c2c4c(c(O)c4c2=C(C=N4)CC1)N3 |  | 2.51 µM | 7.99 µM | 4.21 µM | 5.44 µM | 16.6 µM | 3.9 µM | 3.44 µM | 9.66 µM |  |  | 
15 | C(/Cc1ccc2c(c1)OCO2)=N\NC1=NCCN1 | > 100 µM | > 100 µM |  | > 100 µM | > 100 µM | 70.5 µM | > 100 µM | > 100 µM | > 100 µM | > 100 µM | > 100 µM | 
16 | O=C(NC1CCCCC1)c1cc2ccccc2cc1O |  |  | > 100 µM | 67.9 µM | > 100 µM | 78.3 µM |  | 47.9 µM | > 100 µM | 87.2 µM | 97.8 µM | 
17 | CCOC(=O)c1nc2ccccc2nc1Oc1ccc(C(=O)OC)cc1 | > 100 µM | > 100 µM | > 100 µM | > 100 µM | > 100 µM | > 100 µM | > 100 µM | > 100 µM | > 100 µM |  | > 100 µM | 
18 | O=c1[nH]c2ccccc2c(O)c1/C=N/C(=S)NCc1ccccc1 | > 100 µM | > 100 µM | > 100 µM | > 100 µM | > 100 µM |  | > 100 µM | > 100 µM | > 100 µM |  |  | 
19 | CCOC(=O)C(CC(C)C)NC(=O)CSc1nnc(COc2ccc(Cl)cc2)n1-c1ccccc1 (stereo unspecified) | 26 µM | 24.7 µM |  |  | 49.7 µM | 28.2 µM | 39.4 µM | 32.6 µM | 31.6 µM | 15.6 µM | 60.9 µM | 
20 | C=CC(OC(C)=O)c1ccc(OC(=O)C(C)C)c(OC)c1 (stereo unspecified) | 10.4 µM | 12.4 µM | 3.65 µM | 11.1 µM | 7.69 µM | 31 µM | 6.29 µM | 30.1 µM | 24.6 µM |  | > 80.6 µM | 
21 | CSCCCS/C1=C/CCCCCCCCCC1 | > 100 µM | > 100 µM | > 100 µM |  |  | > 100 µM | > 100 µM | > 100 µM | > 100 µM | > 100 µM | > 100 µM | 
22 | CN(C)c1ccc(C=C2C(=O)N(c3ccccc3)N(c3ccccc3)C2=O)cc1 | > 100 µM | > 100 µM |  | > 100 µM | > 100 µM | > 100 µM | > 100 µM | > 100 µM | > 100 µM | > 100 µM | > 100 µM | 
